The results in this text go back to article PMC5404542, “In Vitro and In Vivo Antifungal Profile of a Novel and Long-Acting Inhaled Azole, PC945, on Aspergillus fumigatus Infection” (Antimicrobial Agents and Chemotherapy, 2017).

Data set [1] is described as follows: Systemic exposure after topical/intranasal treatment. The data set is classed as in vivo. The following applies: data not shown.
Data set [2] can be described thus: Precipitation in EUCAST medium. It counts as physicochemical.
In data set [3] the test system is Candida glabrata (ATCC 36583, R363). In words: MIC, CLSI. The following applies: Nakaseomyces glabratus, ATCC36583; 2 strains, CLSI, mean isolate MIC; read-out: MIC (the MIC given is the MIC50). The data set is classed as cell-based.
For data set [4], the system named is Aureobasidium pullulans (ATCC 9348). In words: MIC, CLSI. The data set is classed as cell-based. The following applies: ATCC9348, 1 strain.
A short description of a further data set: Plasma protein binding. It counts as in vitro ADME.
The subject of data set [5] is Candida krusei (ATCC 6258). In words: MIC, CLSI. The data set is classed as cell-based. The following applies: Pichia kudriavzevii, ATCC6258; 1 strain, CLSI; read-out: MIC.
For data set [6], the system named is Aspergillus flavus (ATCC 204304). In words: MIC, CLSI. The data set is classed as cell-based. The following applies: ATCC204304, 1 strain, CLSI, read-out: MIC.

Converted amounts (≈) assume the structure as drawn. Bounds are passed on as bounds.

Broadly, the MIC50 is the lowest concentration that inhibits either 50% of growth or 50% of the strains tested, depending on the study. A word on the MIC: it is the lowest concentration found to suppress growth. On to `Cc1cc(N2CCN(c3ccc(C(=O)Nc4ccc(F)cc4)cc3)CC2)ccc1OC[C@@H]1CO[C@@](Cn2cncn2)(c2ccc(F)cc2F)C1` [PC945, 4-[4-(4-{[(3R,5R)-5-(2,4-difluorophenyl)-5-(1H-1,2,4-triazol-1-ylmethyl)oxolan-3-yl]methoxy}-3-methylphenyl)piperazin-1-yl]-N-(4-fluorophenyl)benzamide], for which the systemic exposure entry in data set [1] is on record as “very low systemic exposure”. The “concentration at which compound precipitated in EUCAST medium” value in data set [2] was > 4000 ng/mL. Also, in data set [3], the MIC50 is 0.5 µg/mL (≈ 0.732 µM). The MIC was > 8 µg/mL in data set [4], 0.125 µg/mL (≈ 0.183 µM) in data set [5] and > 8 µg/mL in data set [6]. Further, the plasma protein binding entry in the data set “Plasma protein binding” is reported as “high levels of plasma protein binding”.

For `CC[C@@H]([C@H](C)O)n1ncn(-c2ccc(N3CCN(c4ccc(OC[C@@H]5CO[C@@](Cn6cncn6)(c6ccc(F)cc6F)C5)cc4)CC3)cc2)c1=O` [Posaconazole, posaconazole], the MIC50 in data set [3] stood at 0.5 µg/mL (≈ 0.713 µM). For the same compound, the MIC in data set [4] amounted to 1 µg/mL (≈ 1.43 µM); in data set [6], 0.13 µg/mL (≈ 0.186 µM).
